The source made the active and inactive calls. No cut-off for these calls is given here.

Data on four molecules can be found in ChEMBL document CHEMBL1157055, “Limonoids and tirucallane derivatives from the seeds of a krishna mangrove, Xylocarpus moluccensis” (2010).

Assay [1] concerns Brontispa longissima. The assay can be described thus: Insecticidal activity against Brontispa longissima Gestro at 100 ug/ml after 72 hrs. Format: functional.
The test system of assay [2] is Brontispa longissima. Description: Insecticidal activity against Brontispa longissima Gestro at 100 ug/ml after 96 hrs. In kind it is functional.
Assay [3] has as its system Brontispa longissima. The assay can be described thus: Insecticidal activity against Brontispa longissima Gestro at 100 ug/ml. Format: functional, organism-based.

Take `CC[C@H](C)C(=O)O[C@@]12C[C@]3(C)[C@H](OC(=O)C(C)C)[C@]1(O)C(=O)C1=C(CC[C@]4(C)C1=CC(=O)O[C@H]4c1ccoc1)[C@]2(C)[C@H]3CC(=O)OC` [MOLUCCENSINS H]: the Activity was 20.7% with Brontispa longissima [1] and 27.6% with Brontispa longissima [2].
`CC[C@H](C)C(=O)O[C@H]1[C@@]2(C)C[C@@]3(OC(=O)[C@@H](C)CC)[C@](C)([C@H]4CC[C@]5(C)C(=C4C(=O)[C@@]13O)CC(=O)O[C@H]5c1ccoc1)[C@H]2CC(=O)OC`: the result in the assay with Brontispa longissima [3] was inactive.
The same measure, in the same setting: in the case of `CC[C@H](C)C(=O)O[C@@]12C(=O)C3=C(CC[C@]4(C)C3=CC(=O)O[C@H]4c3ccoc3)[C@]3(C)[C@@H](CC(=O)OC)[C@](C)(C[C@]13O)[C@@H]2OC(=O)C(C)C` it was “inactive”; in that of `CC[C@H](C)C(=O)O[C@@]12C(=O)C3=C4CC(=O)O[C@@H](c5ccoc5)[C@]4(C)CC[C@@H]3[C@]3(C)[C@@H](CC(=O)OC)[C@](C)(C[C@@]31O)[C@@H]2OC(=O)C(C)C`, “inactive”.
